{
  "source": "patent US12123023B2",
  "about": "“Methods for generating stem cell-derived β cells and methods of use thereof” (President and Fellows of Harvard College, priority 2014, dated 2024)",
  "system": "SC-β cells",
  "experiment": "FACS analysis of marker expression in cells differentiated to SC-β cells (end of Step 6, versus DMSO control)",
  "type": "cell-based, human",
  "text": "FIG. 4A is a schematic illustrating an exemplary method for generating SC-β cells according to an embodiment of the present invention, e.g., by contacting a cell population directed to differentiate to SC-β cells under conditions that promote cell clustering with an agent that decreases the level and/or activity of rho-associated protein kinase (Rock inhibitor), a TGF-β superfamily member (e.g., Activin A), and a protein kinase inhibitor (e.g., staurosporine) during the steps indicated.\nThe SC-β cells generated in accordance with the methods of the present invention can be used in various assays to identify novel drugs that improve β cell function, survival, or proliferation, cell therapies (e.g., for treating diabetes and/or metabolic disorders), and in the construction of artificial islets and/or an artificial pancreas.",
  "key": {"[1]": {"conditions": "S4 cells contacted during Step 5, cells at end of Step 6, versus control (DMSO)"}},
  "data": [
    {"smiles": "CN[C@@H]1C[C@H]2O[C@@](C)([C@@H]1OC)n1c3ccccc3c3c4c(c5c6ccccc6n2c5c31)C(=O)NC4", "note": "[staurosporine]", "values": [
      {"measurement": "endocrine population purity (FACS)", "setting": "[1]", "result": "near pure endocrine population"},
      {"measurement": "percentage of NKX6.1+, C-Peptide+ cells (FACS)", "setting": "[1]", "result": "higher percentage of NKX6.1+, C-Peptide+ cells"},
      {"measurement": "marker expression at differentiation stages S4, S5, S6 (FACS)", "setting": "S4 cells contacted during Step 5 together with the Rock inhibitor, in the absence of Activin A", "result": "maintain marker expression"}
    ]}
  ]
}
